Common to all, as to experiment: Bacterial growth minimal inhibitory concentration, microdilution in cation-adjusted Mueller-Hinton Broth (CLSI M7-A7)
Common to all, as to format: cell-based
For orientation: Broth dilution looks for growth in wells or tubes with falling amounts of substance.

Assay [1] deals with P. aeruginosa ATCC27853. To be noted: for MIC: Pseudomonas aeruginosa. The method, then: (§1) Minimal Inhibitory Concentrations (MICs; mg/L) were determined in cation-adjusted Mueller-Hinton Broth by a microdilution method following the description given in “Methods for Dilution Antimicrobial Susceptibility Tests for Bacteria that Grow Aerobically”, Approved standard, 7th ed., Clinical and Laboratory Standards Institute (CLSI) Document M7-A7, Wayne, Pa., USA (2006).
(§2) All Example compounds were tested against several Gram-positive and Gram-negative bacteria. […] K pneumoniae A-651 is a multiply-resistant (in particular quinolone-resistant) strain, while E. coli ATCC25922 and P. aeruginosa ATCC27853 are quinolone-sensitive strains.

In assay [2] the test system is K. Pneumoniae A-651. The settings on record: for MIC: Klebsiella pneumoniae, read-out: MIC for K. Pneumoniae A-651. The method, then:
as §1, §2

Assay [3] concerns E. coli ATCC25922. To be noted: for MIC: Escherichia coli. The procedure:
as §1, §2

[4] abbreviates: ATCC27853, quinolone-sensitive strain, read-out: MIC for P. aeruginosa ATCC27853.
The mark [5] stands for this setting: multiply-resistant (in particular quinolone-resistant) strain.
The mark [6] stands for this setting: ATCC25922, quinolone-sensitive strain, read-out: MIC for E. coli ATCC25922.

In brackets after ≈: the same amount, converted by molar mass. Structures can show the parent of a compound that is named as a salt. Where two headings read alike, the source gives them in different places. A value given as a limit tells only on which side of the number the result lay.

The results in this text go back to US20170355687A1, “ANTIBACTERIAL BENZOTHIAZOLE DERIVATIVES” (Actelion Pharmaceuticals Ltd, priority 2014, published 2017).

In general, MIC refers to the lowest concentration found to suppress growth.

As to `COc1ccc(-c2ccc3nc(CCC(C)(C(=O)NO)S(C)(=O)=O)sc3c2)cc1` (racemic) [RE1, (RS)-N-hydroxy-4-(6-(4-methoxyphenyl)benzo[d]thiazol-2-yl)-2-methyl-2-(methylsulfonyl)butanamide], the MIC is 16 µg/mL (≈ 36.8 µM) in assay [1] (setting [4]), 2 µg/mL (≈ 4.6 µM) in assay [2] (setting [5]) and 0.25 µg/mL (≈ 0.575 µM) in assay [3] (setting [6]).
The like results for `CC(CCc1nc2ccc(C#Cc3ccc(CO)cc3)cc2s1)(C(=O)NO)S(C)(=O)=O` (racemic) [RE2, (RS)-N-hydroxy-4-(6-((4-(hydroxymethyl)phenyl)ethynyl)benzo[d]thiazol-2-yl)-2-methyl-2-(methylsulfonyl)butanamide] were, in that order, 16 µg/mL (≈ 34.9 µM), 0.5 µg/mL (≈ 1.09 µM) and 0.125 µg/mL (≈ 0.273 µM).
Consider `CC(CCc1nc2ccc(C#Cc3ccc(C4(N)COC4)cc3)cc2s1)(C(=O)NO)S(C)(=O)=O.Cc1ccc(S(=O)(=O)O)cc1` (racemic) [RE3, (RS)-4-(6-((4-(3-aminooxetan-3-yl)phenyl)ethynyl)-benzo[d]thiazol-2-yl)-N-hydroxy-2-methyl-2-(methylsulfonyl)butanamide 4-methyl-benzenesulfonate], for which the MIC in assay [1] (setting [4]) was found to be 8 µg/mL; in assay [2] (setting [5]), 1 µg/mL; in assay [3] (setting [6]) it was 4 µg/mL.
`CC(CCc1nc2ccc(C#CC#CCO)cc2s1)(C(=O)NO)S(C)(=O)=O` (racemic) [RE4, (RS)-N-hydroxy-4-(6-(5-hydroxypenta-1,3-diyn-1-yl)benzo[d]thiazol-2-yl)-2-methyl-2-(methylsulfonyl)butanamide]: the minimal inhibitory concentration (MIC) turned out to be 1 µg/mL (≈ 2.46 µM) in assay [1] (setting [4]), 8 µg/mL (≈ 19.7 µM) in assay [2] (setting [5]) and 0.5 µg/mL (≈ 1.23 µM) in assay [3] (setting [6]).
With `C[C@@](CCc1nc2ccc(C#CC#C[C@]3(O)C[C@@H](CO)C3)cc2s1)(C(=O)NO)S(C)(=O)=O` (relative stereo) [Example 21, (R)-N-hydroxy-4-(6-((cis-1-hydroxy-3-(hydroxymethyl)cyclobutyl)buta-1,3-diyn-1-yl)benzo[d]thiazol-2-yl)-2-methyl-2-(methylsulfonyl)butanamide], the “MIC for P. aeruginosa ATCC27853” value in assay [1] (quinolone-sensitive strain) stood at 2 mg/L. The “MIC for K. Pneumoniae A-651” value in assay [2] (setting [5]) was found to be 2 mg/L. Further, the “MIC for E. coli ATCC25922” value in assay [3] (quinolone-sensitive strain) was determined as 1 mg/L.
As for `C[C@@](CCc1nc2ccc(C#CC#C[C@@]3(F)C[C@@H]3CO)cc2s1)(C(=O)NO)S(C)(=O)=O` (relative stereo) [Example 23, (R)-4-(6-(((1R*,2R*)-1-fluoro-2-(hydroxymethyl)cyclopropyl)buta-1,3-diyn-1-yl)benzo[d]thiazol-2-yl)-N-hydroxy-2-methyl-2-(methylsulfonyl)butanamide], the MIC in assay [1] (setting [4]) is 0.5 µg/mL (≈ 1.08 µM); in assay [2] (setting [5]), 0.25 µg/mL (≈ 0.538 µM); in assay [3] (setting [6]) it was at most 0.063 µg/mL.
Taken in the same sequence, the figures for `C[C@@](CCc1nc2ccc(C#CC#C[C@H]3C[C@]3(F)CO)cc2s1)(C(=O)NO)S(C)(=O)=O` (relative stereo) [Example 24, (R)-4-(6-(((1R*,2R*)-2-fluoro-2-(hydroxymethyl)cyclopropyl)buta-1,3-diyn-1-yl)benzo[d]thiazol-2-yl)-N-hydroxy-2-methyl-2-(methylsulfonyl)butanamide] were 0.25 µg/mL (≈ 0.538 µM), 0.25 µg/mL (≈ 0.538 µM) and at most 0.063 µg/mL.
Turning to `C[C@@](CCc1nc2ccc(C#CC#CC3(O)COC3)cc2s1)(C(=O)NO)S(C)(=O)=O` (single isomer, unassigned) [Example 1], the MIC was determined as 1 µg/mL (≈ 2.23 µM) in assay [1] (setting [4]), 0.25 µg/mL (≈ 0.557 µM) in assay [2] (setting [5]) and 0.25 µg/mL (≈ 0.557 µM) in assay [3] (setting [6]).
For `COc1ccc(-c2ccc3nc(CC[C@](C)(C(=O)NO)S(C)(=O)=O)sc3c2)c(F)c1` [Example 2, (R)-4-(6-(2-fluoro-4-methoxyphenyl)benzo[d]thiazol-2-yl)-N-hydroxy-2-methyl-2-(methylsulfonyl)butanamide], the minimum inhibitory concentration (MIC) in assay [1] (setting [4]) was 2 µg/mL (≈ 4.42 µM); in assay [2] (setting [5]), 0.25 µg/mL (≈ 0.552 µM); in assay [3] (setting [6]), at most 0.063 µg/mL.
The like results for `C[C@@](CCc1nc2ccc(C#Cc3ccc(C4(O)COC4)cc3)cc2s1)(C(=O)NO)S(C)(=O)=O` [Example 3, (R)-N-hydroxy-4-(6-((4-(3-hydroxyoxetan-3-yl)phenyl)ethynyl)benzo[d]thiazol-2-yl)-2-methyl-2-(methylsulfonyl)butanamide] were, in that order, 8 µg/mL (≈ 16 µM), 1 µg/mL (≈ 2 µM) and 4 µg/mL (≈ 7.99 µM).
The like results for `CC(C)(O)C#CC#Cc1ccc2nc(CC[C@](C)(C(=O)NO)S(C)(=O)=O)sc2c1` [Example 4, (R)-N-hydroxy-4-(6-(5-hydroxy-5-methylhexa-1,3-diyn-1-yl)benzo[d]thiazol-2-yl)-2-methyl-2-(methylsulfonyl)butanamide] were, in that order, 1 µg/mL (≈ 2.3 µM), 0.5 µg/mL (≈ 1.15 µM) and 0.5 µg/mL (≈ 1.15 µM).
Taken in the same sequence, the figures for `C[C@@](CCc1nc2ccc(C#CC#C[C@H](O)CO)cc2s1)(C(=O)NO)S(C)(=O)=O` [Example 5, (R)-4-(6-((S)-5,6-dihydroxyhexa-1,3-diyn-1-yl)benzo[d]thiazol-2-yl)-N-hydroxy-2-methyl-2-(methylsulfonyl)butanamide] were 1 µg/mL (≈ 2.29 µM), 8 µg/mL (≈ 18.3 µM) and 1 µg/mL (≈ 2.29 µM).
`CC(C)(N)C#CC#Cc1ccc2nc(CC[C@](C)(C(=O)NO)S(C)(=O)=O)sc2c1` [Example 6, (R)-4-(6-(5-amino-5-methylhexa-1,3-diyn-1-yl)benzo[d]thiazol-2-yl)-N-hydroxy-2-methyl-2-(methylsulfonyl)butanamide]: the minimum inhibitory concentration (MIC) in assay [1] (setting [4]) was 1 µg/mL (≈ 2.31 µM); in assay [2] (setting [5]), 1 µg/mL (≈ 2.31 µM); in assay [3] (setting [6]), 0.25 µg/mL (≈ 0.577 µM).
As to `C[C@@](CCc1nc2ccc(C#CC#C[C@H]3C[C@@H]3CO)cc2s1)(C(=O)NO)S(C)(=O)=O` [Example 7, (R)-N-hydroxy-4-(6-(((1S,2S)-2-(hydroxymethyl)cyclopropyl)buta-1,3-diyn-1-yl)benzo[d]thiazol-2-yl)-2-methyl-2-(methylsulfonyl)butanamide], the minimum inhibitory concentration (MIC) in assay [1] (setting [4]) was 0.5 µg/mL (≈ 1.12 µM); in assay [2] (setting [5]), 0.125 µg/mL (≈ 0.28 µM); in assay [3] (setting [6]), at most 0.063 µg/mL.
On to `C[C@@](CCc1nc2ccc(C#CC#CC3(CO)CC3)cc2s1)(C(=O)NO)S(C)(=O)=O` [Example 8, (R)-N-hydroxy-4-(6-((1-(hydroxymethyl)cyclopropyl)buta-1,3-diyn-1-yl)benzo[d]thiazol-2-yl)-2-methyl-2-(methylsulfonyl)butanamide], for which the minimal inhibitory concentration (MIC) in assay [1] (setting [4]) amounted to 0.5 µg/mL (≈ 1.12 µM); in assay [2] (setting [5]), 0.5 µg/mL (≈ 1.12 µM); in assay [3] (setting [6]), 0.25 µg/mL (≈ 0.56 µM).
Take `C[C@@](CCc1nc2ccc(C#CC#CC3(N)COC3)cc2s1)(C(=O)NO)S(C)(=O)=O` [Example 9, (R)-4-(6-((3-aminooxetan-3-yl)buta-1,3-diyn-1-yl)benzo[d]thiazol-2-yl)-N-hydroxy-2-methyl-2-(methylsulfonyl)butanamide]: the minimum inhibitory concentration (MIC) in assay [1] (setting [4]) stood at 2 µg/mL (≈ 4.47 µM); in assay [2] (setting [5]), 2 µg/mL (≈ 4.47 µM); in assay [3] (setting [6]), 1 µg/mL (≈ 2.23 µM).
For `C[C@@](CCc1nc2ccc(C#CC#CC3(N)CC3)cc2s1)(C(=O)NO)S(C)(=O)=O` [Example 10, (R)-4-(6-((1-aminocyclopropyl)buta-1,3-diyn-1-yl)benzo[d]thiazol-2-yl)-N-hydroxy-2-methyl-2-(methylsulfonyl)butanamide hydrochloride], the minimal inhibitory concentration (MIC) in assay [1] (ATCC27853, read-out: MIC for P. aeruginosa ATCC27853) is 1 µg/mL; in assay [2] it was 0.25 µg/mL; in assay [3] (ATCC25922, read-out: MIC for E. coli ATCC25922), 0.125 µg/mL.
